Laboratory results taken from patent US11116799B2, “Generation of uniform hepatocytes from human embryonic stem cells by inhibiting TGF-beta and methods of maintaining hepatic cultures” (Wisconsin Alumni Research Foundation, priority 2016, dated 2021).

What was measured:
[1] = system: H9-ALB-GFP/AFP-Tomato (dual clone 1) derived hepatocytes; assay: RNA-Seq of ES-derived hepatocytes treated with Stauprimide; format: cell-based, human; parameters: HNF4A RNA-Seq expression / ADH4 RNA-Seq expression / BAAT RNA-Seq expression / SERPINC1 RNA-Seq expression / SERPINA1 RNA-Seq expression / ALB RNA-Seq expression / AFP RNA-Seq expression / UGT1A9 RNA-Seq expression / UGT1A1 RNA-Seq expression / UGT1A6 RNA-Seq expression: unit not given here; conditions: dual clone 1 ES-derived hepatocytes (CDI), 72 hrs
Method: The effects of Stauprimide in maturation of ES-derived hepatocytes was validated by RNA-Seq as described above. Briefly, the H9-ALB-GFP/AFP-Tomato (dual clone 1) were differentiated to a pure population of hepatocytes by CDI (Madison, Wis.) and treated with Stauprimide for 72 hours. […] Thus, Stauprimide is able to increase expression of mature hepatocyte genes and reduce the expression of the fetal marker AFP.

hepatocytes = assay: Robotic compound screen for albumin and AFP expression in hepatocytes; format: cell-based
Method: A robotic screen was performed to determine compounds that increase expression of albumin in hepatocytes as an indicator that the compounds play a role in hepatocyte maturation. 1200 compounds were screened and 400 compounds analyzed for their effects on hepatocytes with regard to the levels of albumin and fetal marker AFP.

[2] = system: H9-ALB-GFP/AFP-Tomato (dual clone 1); assay: Gene expression of hepatocytes differentiated from ES cells with 3 or 18 days of Activin A; format: cell-based, human; parameters: scale not given here; conditions: dual clone 1 hepatocytes, unsorted
Method: The H9-ALB-GFP/AFP-Tomato (dual clone 1) were differentiated to hepatocytes using the protocol depicted in FIG. 4. Either 3 day or 18 days of Activin A treatment was used with the rest of the protocol being the same. The cells were not sorted and differentiated for 18 and 33 days (for 3 and 18 day DE respectively).
ES cells were cultured in E8 medium (Reference 2) and were differentiated to hepatocytes following a previously published protocol (Reference 1) with modifications. Briefly, at approximately 50% confluency the ES cells were singularized by accutase and seeded on matrigel coated plate in E6 medium containing 100 ng/ml Activin A (Sigma). They were cultured in the Activin A medium for seven days. From day 8 to day 12 the cells were treated with 25 ng/ml FGF4 (R&D Systems) along with 20 ng/ml BMP2 in E6. During days 13 through 17 the cells were treated with 20 ng/ml HGF (R&D Systems) and 10 ng/ml Oncostatin M (R&D Systems) in E6. Finally, the cells were cultured in E6 containing 0.1 μM Dexamethasone (Sigma) from day 18 to day 22. From day 8 onwards, SB431542 and DAPT were added to the medium to inhibit TGFB and NOTCH respectively at 10 μM final concentration.

[3] = system: primary human hepatocytes (PHHs); assay: RNA-Seq gene expression in MAPK inhibitor treated primary human hepatocytes; format: cell-based
Method: […]. […] […].
For small RNA-Seq profiling, hepatocytes from Hu8082 were used; for de-differentiation time course and let-7c transduction, hepatocytes from Hu4260, Hu8135, Hu4279 and Hu8137 were used. For both experiments, cells from all 4 donors were mixed in equal numbers after assessment of viability. For small molecule treatments, batch Hu4260 was used.
RNA-Seq was performed by LM-Seq (Illumina).
For small molecule treatments, batch Hu4260 was used.
. To ascertain that the increase in metabolic enzymes took place through specific MAPK inhibition, PHHs were treated with a second MAPK inhibitor, PD0325901, for 72 hours, followed by RNA-Seq analysis (Supplementary Table 4). […].

HepG2 cells = assay: HepG2 viability / cell growth (cell counting by dye exclusion); format: cell-based, human; conditions: HepG2, 72 hours, compared to vehicle control
Method: CYP2C9 and 3A4 metabolism were measured using CYP450 Glo assay (Promega). In short, substrates were added to the media and incubated for 72 hours and the amount of metabolites generated were measured by adding the detection reagent and quantifying the luminescence in a Tecan® plate reader. Background was measured by incubating the substrates for 72 hours in the same media without cells. Cell counting for proliferation assay was carried out by dye exclusion in an automated cell counter (ThermoFisher).

[4] = system: primary mouse hepatocytes; assay: RNA-Seq gene expression in primary mouse hepatocytes treated with kinase inhibitors; conditions: 10 μM, 72 hours
Description: The next step was to determine if the PI3/Akt and MAPK pathways are involved in maintenance of hepatocyte maturation. We investigated whether small molecule inhibition of these pathways would mimic let-7's action and reduce the loss of mature function of hepatocytes in culture after removal from their microenvironment. […] Then, expression of the top ten important metabolic enzymes (CYPs, UGTs and transporters) by RNA-Seq with uncultured fresh hepatocytes and control vehicle hepatocytes treated for 72 hours was compared.
Hepatocytes from 6 black mice livers were isolated by perfusion following standard protocol and cultured on Matrigel coated plates in hepatocyte growth medium (Promocell). Whole developing livers from 6 black mice were used for RNA isolation with Trizol for let-7c measurements.
Total RNA (including microRNA) from all cells, which were not mentioned otherwise, were isolated using RNAeasy Plus Kit […] following manufacturers protocol. RNA-Seq was performed by LM-Seq (Illumina). MicroRNAs were sequenced using Illumina's small RNA sequencing kit. Expression of let-7 and U6 snoRNA were measured by quantitative PCR using ABI's kit. Let-7c expression levels were normalized by U6 snoRNA expression (RQ or relative quantity values, error bars representing standard error, RQ min and RQ max).
Multiple batches of cryopreserved induction qualified human hepatocytes (each batch being from one donor) were purchased from Life Technologies and cultured on Matrigel coated plates in hepatocyte growth medium (PromoCell). For dedifferentiation studies, hepatocytes from batches Hu4260, Hu8135, Hu4279 and Hu8137 were used after mixing equal number of live cells. For small molecule treatments, batch Hu4260 was used. Mouse hepatocytes were isolated from Black 6 mice livers by perfusion following standard protocol and cultured on Matrigel coated plates in hepatocyte growth medium (Promocell).
Total RNA were isolated using RNAeasy Plus Kit (Qiagen) following manufacturers protocol and qualified with the Life Technologies Qubit fluorometer and Agilent Bioanalyzer. […] Final indexed cDNA libraries were pooled and sequenced on an Illumina HiSeq 2500. Base-calling and demultiplexing were performed using Casava (v1.8.2). Sequences were filtered and trimmed to remove low quality reads, adapters, and other sequencing artifacts. The remaining reads were aligned to a reference database comprising only RefSeq-validated transcripts (i.e., assigned an “NM_” accession). Mouse samples were aligned to the mm10 assembly, and human samples were aligned to the hg19 assembly. […] Reads with more than 200 alignments were excluded from further analysis. […] All RNA-seq results have been deposited at NCBI's GEO under Accession No. GSE94353.
The inventors next investigated whether the MAPK and PI3/Akt pathways contributed to the dedifferentiation of hepatocytes. […] Rapamycin was included as a control, which is an inhibitor of the mTOR pathway, a serine/threonine kinase involved in cell signaling not identified as a key pathway in our analysis.

[5] = 3 day Activin A (DE), differentiated 18 days
[6] = 18 day Activin A (DE), differentiated 33 days
[7] = primary human hepatocytes, treated 72 hours

For `CO[C@@H]1[C@H](N(C)C(=O)c2ccccc2)C[C@H]2O[C@]1(C)n1c3ccccc3c3c4c(c5c6ccccc6n2c5c31)C(=O)NC4=O` [Stauprimide], the “ADH4 RNA-Seq expression” value [1] was 12.82, the “AFP RNA-Seq expression” value [1] was 2485.61 and the “ALB RNA-Seq expression” value [1] was 8513.48. For the same compound, the “BAAT RNA-Seq expression” value [1] was 10.4, the CYP2D6 RNA-Seq expression [1] was 0 TPM and the CYP2E1 RNA-Seq expression [1] was 9.6 TPM. The “HNF4A RNA-Seq expression” value [1] was 25.97, the “SERPINA1 RNA-Seq expression” value [1] was 10030.14 and the “SERPINC1 RNA-Seq expression” value [1] was 42.45. For the same compound, the “UGT1A1 RNA-Seq expression” value [1] was 322.35, the “UGT1A6 RNA-Seq expression” value [1] was 411.32 and the “UGT1A9 RNA-Seq expression” value [1] was 47.42. The “CYP1A1 RNA-Seq expression” value ([1]; in TPM) was 47.04, the “CYP2C9 RNA-Seq expression” value ([1]; in TPM) was 19.63 and the “expression of AFB” value (hepatocytes) was “did not increase expression”. The expression of albumin (hepatocytes) was “increased expression”.
“Activing A: Activin A, growth factor used to differentiate pluripotent stem cells to definitive endoderm” gave an AFP gene expression [2, 5] of 1663.62, an ALB gene expression [2, 5] of 600.43 and a CYP1A1 gene expression [2, 5] of 23.85. The CYP2C9 gene expression [2, 5] was 2.26, the CYP2D6 gene expression [2, 5] was 2.24 and the CYP2E1 gene expression [2, 5] was 0. It also gave a CYP3A4 gene expression [2, 5] of 0.92, a U6T1A1 gene expression [2, 5] of 3.86 and a UGT1A6 gene expression [2, 5] of 1.75. The AFP gene expression [2, 6] was 8635.2, the ALB gene expression [2, 6] was 5129.36 and the CYP1A1 gene expression [2, 6] was 80.48. It also gave a CYP2C9 gene expression [2, 6] of 76.46, a CYP2D6 gene expression [2, 6] of 3.51 and a CYP2E1 gene expression [2, 6] of 0.4. The CYP3A4 gene expression [2, 6] was 33.64, the U6T1A1 gene expression [2, 6] was 66.36 and the UGT1A6 gene expression [2, 6] was 23.94.
In the case of `O=C(NOC[C@H](O)CO)c1ccc(F)c(F)c1Nc1ccc(I)cc1F` [PD0325901], the HBV receptor expression ([3]; PHHs treated 72 hours) is reported as “upregulated”, the AFP gene expression [3, 7] is reported as 7.07 transcripts per million and the ALB gene expression [3, 7] is reported as 1293.62 transcripts per million. The CD81 gene expression [3, 7] was 388.31 transcripts per million, the CYP1A2 gene expression [3, 7] was 1.87 transcripts per million and the CYP1B1 gene expression [3, 7] was 3.56 transcripts per million. The CYP2C9 gene expression [3, 7] was 73.61 transcripts per million, the CYP2D6 gene expression [3, 7] was 1.24 transcripts per million and the CYP2E1 gene expression [3, 7] was 4.94 transcripts per million. For the same compound, the CYP3A4 gene expression [3, 7] was 22.44 transcripts per million, the SLCO1B1 gene expression [3, 7] was 151.48 transcripts per million and the SLCO1B3 gene expression [3, 7] was 7.24 transcripts per million. The UGT1A1 gene expression [3, 7] was 69.02 transcripts per million, the UGT1A6 gene expression [3, 7] was 1337.30 transcripts per million and the UGT1A9 gene expression [3, 7] was 87.51 transcripts per million. The “HepG2 viability / cell growth” value (HepG2 cells) was “increased cell death and growth arrest”.
`O=c1cc(N2CCOCC2)oc2c(-c3ccccc3)cccc12` [LY294002] was tested, and the ABCC2 gene expression [4] was 232.34 transcripts per million, the CYP1A2 gene expression [4] was 80.54 transcripts per million and the CYP2C9 gene expression [4] was 1332.65 transcripts per million. The CYP2E1 gene expression [4] was 57.37 transcripts per million, the CYP3A11 gene expression [4] was 1409.71 transcripts per million and the CYP3A25 gene expression [4] was 61.42 transcripts per million. The UGT1A6A gene expression [4] was 48.21 transcripts per million, the UGT1A9 gene expression [4] was 15.27 transcripts per million and the UGT1A10 gene expression [4] was 0.86 transcripts per million. For the same compound, the UGT2B5 gene expression [4] was 196.44 transcripts per million.
